Here are results for 9 compounds from patent US8933089B2, “HIV inhibiting 5-amido substituted pyrimidines” (Janssen R & D Ireland, priority 2006, dated 2015).

SMILES strings stand for the structures.

Assay type in all cases: cell-based, HIV-1
Assay [1] has as its system HIV strain IIIB (wild type). The assay is described as follows: Cellular anti-HIV assay in MT4 LTR-EGFP cells, strain IIIB (wild type); selectivity index versus cytotoxicity in mock-infected MT4 CMV-EGFP cells. Conditions: for EC50: Human immunodeficiency virus 1, 72 h, wild type HIV strain IIIB, MT4 LTR-EGFP cells, fluorescence, three days after infection, read-out: IIIB pEC50 (converted); for IIIB pSi: selectivity index = ratio of CC50 (mock-infected MT4 CMV-EGFP cells) to EC50 (IIIB), given as p value. The method, then: (§1) The antiviral activity of the compound of the present invention has been evaluated in the presence of wild type HIV and HIV mutants bearing mutations at the reverse transcriptase gene. The activity of the compounds is evaluated using a cellular assay which was performed according to the following procedure.
(§2) The human T-cell line MT4 is engineered with Green Fluorescent Protein (GFP) and an HIV-specific promoter, HIV-1 long terminal repeat (LTR). This cell line is designated MT4 LTR-EGFP, and can be used for the in vitro evaluation of anti-HIV activity of investigational compounds. In HIV-1 infected cells, the Tat protein is produced which upregulates the LTR promotor and finally leads to stimulation of the GFP reporter production, allowing to measure ongoing HIV-infection fluorometrically. Analogously, MT4 cells are engineered with GFP and the constitutional cytomegalovirus (CMV) promotor. This cell line is designated MT4 CMV-EGFP, and can be used for the in vitro evaluation of cytotoxicity of investigational compounds. In this cell line, GFP levels are comparably to those of infected MT4 LTR-EGFP cells. Cytotoxic investigational compounds reduce GFP levels of mock-infected MT4 CMV-EGFP cells.
(§3) Effective concentration values such as 50% effective concentration (EC50) can be determined and are usually expressed in μM. An EC50 value is defined as the concentration of test compound that reduces the fluorescence of HIV-infected cells by 50%. The 50% cytotoxic concentration (CC50 in μM) is defined as the concentration of test compound that reduces fluorescence of the mock-infected cells by 50%. The ratio of CC50 to EC50 is defined as the selectivity index (SI) and is an indication of the selectivity of the anti-HIV activity of the inhibitor. The ultimate monitoring of HIV-1 infection and cytotoxicity is done using a scanning microscope. Image analysis allows very sensitive detection of viral infection. Measurements are done before cell necrosis, which usually takes place about five days after infection, in particular measurements are performed three days after infection.
(§4) The columns IIIB, L100I, etc. in the table list the pEC50 values against various strains IIIB, L100I, etc.
Strain IIIB is wild type HIV strain

The test system of assay [2] is HIV strain L100I. Briefly: Cellular anti-HIV assay in MT4 LTR-EGFP cells, mutant L100I. Particulars: Human immunodeficiency virus 1, read-out: L100I pEC50 (converted). The method, then: (§5) Because of the increasing emergence of drug resistant HIV strains, the present compounds were tested for their potency against clinically isolated HIV strains harbouring several mutations. These mutations are associated with resistance to reverse transcriptase inhibitors and result in viruses that show various degrees of phenotypic cross-resistance to the currently commercially available drugs such as for instance AZT and delavirdine.
as §1, §2, §3, §4

In assay [3] the test system is HIV strain L100I + K103N. Briefly: Cellular anti-HIV assay in MT4 LTR-EGFP cells, mutant L100I + K103N. Conditions: Human immunodeficiency virus 1, 72 h, read-out: L100I + K103N pEC50 (converted). As to the method: as §5, §1, §2, §3, §4
In assay [4] the test system is HIV strain K103N + Y181C. Briefly: Cellular anti-HIV assay in MT4 LTR-EGFP cells, mutant K103N + Y181C. Conditions: Human immunodeficiency virus 1, 72 h, read-out: K103N + Y181C pEC50 (converted). As to the method:
as §5, §1, §2, §3, §4

Assay [5] has as its system HIV strain Y181C. Briefly: Cellular anti-HIV assay in MT4 LTR-EGFP cells, mutant Y181C. Conditions: Human immunodeficiency virus 1, read-out: Y181C pEC50 (converted). As to the method: as §5, §1, §2, §3, §4
For assay [6], the system named is HIV strain Y188L. Briefly: Cellular anti-HIV assay in MT4 LTR-EGFP cells, mutant Y188L. Conditions: Human immunodeficiency virus 1, read-out: Y188L pEC50 (converted). The method, then:
as §5, §1, §2, §3, §4

For assay [7], the system named is HIV strain MDR. Briefly: Cellular anti-HIV assay in MT4 LTR-EGFP cells, MDR strain. Particulars: Human immunodeficiency virus 1, read-out: MDR pEC50 (converted). The method, then:
as §5, §1, §2, §3, §4
MDR refers to a strain that contains mutations L100I, K103N, Y181C, E138G, V1791, L2214F, V278V/I and A327A/V in HIV reverse transcriptase.

In assay [8] the test system is HIV strain K103N. Briefly: Cellular anti-HIV assay in MT4 LTR-EGFP cells, mutant K103N. Particulars: Human immunodeficiency virus 1, read-out: K103N pEC50 (converted). The method, then: as §5, §1, §2, §3, §4

For the compound `CONC(=O)c1cnc(Nc2ccc(C#N)cc2)nc1Nc1c(C)cc(/C=C/C#N)cc1C` [Compound 23], the EC50 was 3.98 nM in assay [1]; 5.01 nM in assay [2]; 12.6 nM in assay [3]; 7.94 nM in assay [4]; 15.8 nM in assay [5]; 15.8 nM in assay [6]. Besides, in assay [7], the EC50 was 794 nM. In assay [1], the “IIIB pSi” value is reported as over 3.80.
Regarding `Cc1ccc(CNC(=O)c2cnc(Nc3ccc(C#N)cc3)nc2Nc2c(C)cc(/C=C/C#N)cc2C)o1` [Compound 24], the EC50 in assay [1] is 15.8 nM; in assay [2], 25.1 nM; in assay [3], 79.4 nM; in assay [4], 50.1 nM; in assay [5], 25.1 nM; in assay [6], 79.4 nM. In assay [7], the EC50 is 5010 nM. For the same compound, in assay [1], the “IIIB pSi” value is listed as 3.00.
Regarding `COc1ccccc1CNC(=O)c1cnc(Nc2ccc(C#N)cc2)nc1Nc1c(C)cc(/C=C/C#N)cc1C` [Compound 27], the EC50 in assay [1] is 6.31 nM; in assay [2] it was 50.1 nM; in assay [8], 7.94 nM; in assay [4], 39.8 nM; in assay [5], 39.8 nM; in assay [6] it was 79.4 nM. In assay [7], the EC50 was 3160 nM. In addition, the “IIIB pSi” value in assay [1] is listed as over 3.60.
As to `Cc1cccc(CNC(=O)c2cnc(Nc3ccc(C#N)cc3)nc2Nc2c(C)cc(/C=C/C#N)cc2C)c1` [Compound 28], the EC50 was 15.8 nM in assay [1]; 50.1 nM in assay [2]; 15.8 nM in assay [8]; 50.1 nM in assay [4]; 79.4 nM in assay [5]; 126 nM in assay [6]. The EC50 in assay [7] is 7940 nM. In addition, the “IIIB pSi” value in assay [1] came to 3.10.
On to `Cc1cc(/C=C/C#N)cc(C)c1Nc1nc(Nc2ccc(C#N)cc2)ncc1C(=O)NCCc1ccccc1` [Compound 31], for which the EC50 was 15.8 nM in assay [1]; 31.6 nM in assay [2]; 15.8 nM in assay [8]; 50.1 nM in assay [4]; 63.1 nM in assay [5]; 79.4 nM in assay [6]. Besides, the EC50 in assay [7] is 10000 nM. Moreover, the “IIIB pSi” value in assay [1] was found to be 3.10.
For `Cc1cc(/C=C/C#N)cc(C)c1Nc1nc(Nc2ccc(C#N)cc2)ncc1C(=O)NCCc1cccc(F)c1` [Compound 32], the EC50 in assay [1] is 12.6 nM; in assay [2] it was 39.8 nM; in assay [8], 15.8 nM; in assay [4] it was 79.4 nM; in assay [5], 79.4 nM; in assay [6] it was 100 nM. In addition, the EC50 in assay [7] is 10000 nM. The “IIIB pSi” value in assay [1] is 3.10.
Turning to `CCOC(=O)CCCNC(=O)c1cnc(Nc2ccc(C#N)cc2)nc1Nc1c(C)cc(/C=C/C#N)cc1C` [Compound 45], the EC50 in assay [1] is 2.51 nM; in assay [2], 6.31 nM; in assay [8] it was 2 nM; in assay [4], 15.8 nM; in assay [6], 20 nM; in assay [7] it was 1000 nM. The “IIIB pSi” value in assay [1] is on record as over 4.00.
Turning to `Cc1cc(/C=C/C#N)cc(C)c1Nc1nc(Nc2ccc(C#N)cc2)ncc1C(=O)NCCC#N` [Compound 46], the EC50 in assay [1] is 7.94 nM; in assay [2] it was 7.94 nM; in assay [3], 15.8 nM; in assay [8] it was 3.98 nM; in assay [4] it was 39.8 nM; in assay [6], 31.6 nM. Moreover, the EC50 in assay [7] is 158 nM. Besides, the “IIIB pSi” value in assay [1] is reported as over 3.50.
Turning to `Cc1cc(/C=C/C#N)cc(C)c1Oc1nc(Nc2ccc(C#N)cc2)ncc1C(=O)NCc1ccncc1` [Compound 58], the EC50 was 2 nM in assay [1]; 316 nM in assay [3]; 6.31 nM in assay [8]; 100 nM in assay [4]; 158 nM in assay [6]; 3160 nM in assay [7]. For the same compound, in assay [1], the “IIIB pSi” value is over 4.10.
